In patent US12534439B2, “Xanthohumol derivatives and methods for making and using” (Oregon State University, priority 2021, dated 2026):

System: HFD-fed C57BL/6J mice
Test: AST and ALT enzymatic activities in liver homogenates
Format: in vivo
Conditions: for ALT / AST: 11 weeks, mean ± SEM
Method: Measure of Metabolic Parameters and Liver Enzymes. ALT and AST enzymatic activities and liver samples (n=4-8 per group) were homogenized in 10 mL of 100 mM
Tris (pH=7.8) per gram of tissue. The homogenates were centrifuged at 10 000 g for 15 minutes at 4° C., and the supernatants were tested for ALT and AST activity using colorimetric assay kits purchased from Cayman Chemical (Ann Arbor, MI, USA). Triglycerides and total cholesterol were analyzed with commercially available kits (Cayman Chemical, Ann Arbor, MI, USA). Plasma glucose at week 11 was measured with a colorimetric assay, and plasma insulin, MCP-1, IL-6, and PCSK9 were analyzed by ELISA kits purchased from Abcam (Cambridge, UK).

With `COc1cc(O)c(CC=C(C)C)c(O)c1-c1cc(-c2ccc(O)cc2)n(C)n1` [XP, 4-(5-(4-hydroxyphenyl)-1-methyl-1H-pyrazol-3-yl)-5-methoxy-2-(3-methylbut-2-en-1-yl)benzene-1,3-diol] the “AST and ALT test results versus control” value was “did not change substantially”, the ALT was 0.38 ± 0.07 U/mL and the AST was 0.30 ± 0.06 U/mL. The “Decrease in liver enzymes (AST, ALT)” value (versus control, not significant) was 30%.
With `COc1cc(O)c(CC=C(C)C)c(O)c1C(=O)/C=C/c1ccc(O)cc1` [XN, xanthohumol] the “AST and ALT test results versus control” value was “did not change substantially”, the ALT was 0.22 ± 0.06 U/mL and the AST was 0.16 ± 0.03 U/mL.
